In ChEMBL document CHEMBL3616371, “Synthesis of BF₃ catalyzed Mannich derivatives with excellent ee from phenylpropanolamine, study of their antimicrobial activity and molecular docking” (2015):

Legend:
[1] = system: Staphylococcus aureus; test: Antibacterial activity against Staphylococcus aureus assessed as growth inhibition at 1 mg/well after 24 hrs by Well method; format: functional
[2] = system: Staphylococcus epidermidis; test: Antibacterial activity against Staphylococcus epidermidis assessed as growth inhibition at 1 mg/well after 24 hrs by Well method; format: functional
[3] = system: Staphylococcus aureus; test: Antibacterial activity against methicillin-resistant Staphylococcus aureus assessed as growth inhibition at 1 mg/well after 24 hrs by Well method; format: functional
[4] = system: Salmonella enterica subsp. enterica serovar Paratyphi B; test: Antibacterial activity against Salmonella paratyphi B assessed as growth inhibition at 1 mg/well after 24 hrs by Well method; format: functional
[5] = system: Salmonella typhimurium; test: Antibacterial activity against Salmonella typhimurium assessed as growth inhibition at 1 mg/well after 24 hrs by Well method; format: functional, Salmonella enterica subsp. enterica serovar Typhimurium
[6] = system: Proteus vulgaris; test: Antibacterial activity against Proteus vulgaris assessed as growth inhibition at 1 mg/well after 24 hrs by Well method; format: functional
[7] = system: Micrococcus luteus; test: Antibacterial activity against Micrococcus luteus assessed as growth inhibition at 1 mg/well after 24 hrs by Well method; format: functional
[8] = system: Klebsiella pneumoniae; test: Antibacterial activity against Klebsiella pneumoniae assessed as growth inhibition at 1 mg/well after 24 hrs by Well method; format: functional
[9] = system: Shigella flexneri; test: Antibacterial activity against Shigella flexneri assessed as growth inhibition at 1 mg/well after 24 hrs by Well method; format: functional
[10] = system: Bacillus subtilis; test: Antibacterial activity against Bacillus subtilis assessed as growth inhibition at 1 mg/well after 24 hrs by Well method; format: functional
[11] = system: Pseudomonas aeruginosa; test: Antibacterial activity against Pseudomonas aeruginosa assessed as growth inhibition at 1 mg/well after 24 hrs by Well method; format: functional
[12] = system: Aspergillus flavus; test: Antifungal activity against Aspergillus flavus assessed as growth inhibition at 1 mg/well after 48 hrs by Well method; format: functional
[13] = system: Staphylococcus aureus; test: Antibacterial activity against Staphylococcus aureus after 24 hrs by two fold serial dilution method; format: functional
[14] = system: Staphylococcus epidermidis; test: Antibacterial activity against Staphylococcus epidermidis after 24 hrs by two fold serial dilution method; format: functional
[15] = system: Staphylococcus aureus; test: Antibacterial activity against methicillin-resistant Staphylococcus aureus after 24 hrs by two fold serial dilution method; format: functional
[16] = system: Salmonella enterica subsp. enterica serovar Paratyphi B; test: Antibacterial activity against Salmonella paratyphi B after 24 hrs by two fold serial dilution method; format: functional
[17] = system: Salmonella typhimurium; test: Antibacterial activity against Salmonella typhimurium after 24 hrs by two fold serial dilution method; format: functional, Salmonella enterica subsp. enterica serovar Typhimurium; conditions: Salmonella enterica
[18] = system: Proteus vulgaris; test: Antibacterial activity against Proteus vulgaris after 24 hrs by two fold serial dilution method; format: functional
[19] = system: Micrococcus luteus; test: Antibacterial activity against Micrococcus luteus after 24 hrs by two fold serial dilution method; format: functional
[20] = system: Klebsiella pneumoniae; test: Antibacterial activity against Klebsiella pneumoniae after 24 hrs by two fold serial dilution method; format: functional
[21] = system: Shigella flexneri; test: Antibacterial activity against Shigella flexneri after 24 hrs by two fold serial dilution method; format: functional
[22] = system: Bacillus subtilis; test: Antibacterial activity against Bacillus subtilis after 24 hrs by two fold serial dilution method; format: functional
[23] = system: Pseudomonas aeruginosa; test: Antibacterial activity against Pseudomonas aeruginosa after 24 hrs by two fold serial dilution method; format: functional
[24] = system: Aspergillus flavus; test: Antifungal activity against Aspergillus flavus after 48 to 72 hrs by two fold serial dilution method; format: functional
[25] = system: Klebsiella aerogenes; test: Antibacterial activity against Enterobacter aerogenes assessed as growth inhibition at 1 mg/well after 24 hrs by Well method; format: functional
[26] = system: Klebsiella aerogenes; test: Antibacterial activity against Enterobacter aerogenes after 24 hrs by two fold serial dilution method; format: functional
[27] = system: Candida albicans; test: Antifungal activity against Candida albicans assessed as growth inhibition at 1 mg/well after 48 hrs by Well method; format: functional
[28] = system: Malassezia pachydermatis; test: Antifungal activity against Malassezia pachydermatis assessed as growth inhibition at 1 mg/well after 48 hrs by Well method; format: functional
[29] = system: Candida albicans; test: Antifungal activity against Candida albicans after 48 to 72 hrs by two fold serial dilution method; format: functional
[30] = system: Malassezia pachydermatis; test: Antifungal activity against Malassezia pachydermatis after 48 to 72 hrs by two fold serial dilution method; format: functional

`COc1ccc(C(=O)CCN[C@@H](C)[C@H](O)c2ccccc2)cc1.Cl` was tested, and the “inhibition zone (IZ)” value [1] was 18 mm, the “inhibition zone (IZ)” value [2] was 22 mm and the “inhibition zone (IZ)” value [3] was 20 mm. For the same compound, the “inhibition zone (IZ)” value [4] was 20 mm, the “inhibition zone (IZ)” value [5] was 17 mm and the “inhibition zone (IZ)” value [6] was 21 mm. The “inhibition zone (IZ)” value [7] was 23 mm, the “inhibition zone (IZ)” value [8] was 12 mm and the “inhibition zone (IZ)” value [9] was 21 mm. For the same compound, the “inhibition zone (IZ)” value [10] was 19 mm, the “inhibition zone (IZ)” value [11] was 20 mm and the “inhibition zone (IZ)” value [12] was 10 mm. The MIC [13] was 50 µg/mL, the MIC [14] was 25 µg/mL and the MIC [15] was 50 µg/mL. For the same compound, the MIC [16] was 50 µg/mL, the MIC [17] was 50 µg/mL and the MIC [18] was 50 µg/mL. For the same compound, the MIC [19] was 25 µg/mL, the MIC [20] was > 50 µg/mL and the MIC [21] was 50 µg/mL. The MIC [22] was 25 µg/mL, the MIC [23] was 25 µg/mL and the MIC [24] was > 50 µg/mL. The “inhibition zone (IZ)” value [25] was 20 mm and the MIC [26] was 50 µg/mL.

`C[C@H](NCCC(=O)c1cccc([N+](=O)[O-])c1)[C@H](O)c1ccccc1.Cl` was tested, and the “inhibition zone (IZ)” value [1] was 15 mm, the “inhibition zone (IZ)” value [2] was 19 mm and the “inhibition zone (IZ)” value [3] was 15 mm. For the same compound, the “inhibition zone (IZ)” value [4] was 12 mm, the “inhibition zone (IZ)” value [5] was 17 mm and the “inhibition zone (IZ)” value [6] was 18 mm. For the same compound, the “inhibition zone (IZ)” value [7] was 19 mm, the “inhibition zone (IZ)” value [9] was 16 mm and the “inhibition zone (IZ)” value [10] was 15 mm. The “inhibition zone (IZ)” value [11] was 16 mm, the “inhibition zone (IZ)” value [27] was 12 mm and the “inhibition zone (IZ)” value [28] was 13 mm. It also gave an MIC [13] of 50 µg/mL, an MIC [14] of 50 µg/mL and an MIC [15] of 50 µg/mL. The MIC [16] was > 50 µg/mL, the MIC [17] was 50 µg/mL and the MIC [18] was 50 µg/mL. For the same compound, the MIC [19] was 50 µg/mL, the MIC [21] was 50 µg/mL and the MIC [22] was 50 µg/mL. For the same compound, the MIC [23] was 50 µg/mL, the MIC [29] was > 50 µg/mL and the MIC [30] was > 50 µg/mL. For the same compound, the “inhibition zone (IZ)” value [25] was 16 mm and the MIC [26] was 50 µg/mL.
